Reference: ChEMBL document CHEMBL3763135, “Synthesis and evaluation of thiophene-based guanylhydrazones (iminoguanidines) efficient against panel of voriconazole-resistant fungal isolates” (Bioorg Med Chem, 2016)
Active and inactive are the calls of the source.

Experiments:
Danio rerio [1] = organism: Danio rerio; test: Toxicity against zebrafish embryo assessed as head malformation at 5 ug/ml measured at 96 hrs post fertilization by inverted microscopic analysis; type: organism-based; settings: in vivo
[2] = Toxicity against zebrafish embryo measured at 96 hrs post fertilization by inverted microscopic analysis; type: organism-based, Danio rerio; settings: zebrafish embryos
Danio rerio [3] = organism: Danio rerio; test: Toxicity against zebrafish embryo assessed as teratogenic embryos at 5 ug/ml measured at 96 hrs post fertilization by inverted microscopic analysis; type: organism-based; settings: in vivo
Danio rerio [4] = organism: Danio rerio; test: Toxicity against zebrafish embryo assessed as normal embryos at 2.5 ug/ml measured at 96 hrs post fertilization by inverted microscopic analysis; type: organism-based; settings: in vivo
Danio rerio [5] = organism: Danio rerio; test: Toxicity against zebrafish embryo assessed as effect on notochord at 2.5 ug/ml measured at 96 hrs post fertilization by inverted microscopic analysis; type: organism-based; settings: in vivo
Danio rerio [6] = organism: Danio rerio; test: Toxicity against zebrafish embryo assessed as skeletal deformities at 2.5 ug/ml measured at 96 hrs post fertilization by inverted microscopic analysis; type: organism-based; settings: in vivo
Danio rerio [7] = organism: Danio rerio; test: Toxicity against zebrafish embryo assessed as normal embryos at 25 ug/ml measured at 96 hrs post fertilization by inverted microscopic analysis; type: organism-based; settings: in vivo
Danio rerio [8] = organism: Danio rerio; test: Toxicity against zebrafish embryo assessed as effect on tail tip at 2.5 ug/ml measured at 96 hrs post fertilization by inverted microscopic analysis; type: organism-based; settings: in vivo
Danio rerio [9] = test: Toxicity against zebrafish embryo assessed as pericardial edema at 5 ug/ml measured at 96 hrs post fertilization by inverted microscopic analysis; type: organism-based; settings: in vivo
Danio rerio [10] = test: Toxicity against zebrafish embryo assessed as yolk edema at 5 ug/ml measured at 96 hrs post fertilization by inverted microscopic analysis; type: organism-based; settings: in vivo
[11] = Toxicity against zebrafish embryo assessed as dead embryos at 10 ug/ml measured at 96 hrs post fertilization by inverted microscopic analysis; type: organism-based, Danio rerio; settings: read-out: Activity
Danio rerio [12] = organism: Danio rerio; test: Toxicity against zebrafish embryo assessed as effect on eyes at 5 ug/ml measured at 96 hrs post fertilization by inverted microscopic analysis; type: organism-based; settings: in vivo
Danio rerio [13] = organism: Danio rerio; test: Toxicity against zebrafish embryo assessed as teratogenic embryos at 25 ug/ml measured at 96 hrs post fertilization by inverted microscopic analysis; type: organism-based; settings: in vivo
Danio rerio [14] = organism: Danio rerio; test: Toxicity against zebrafish embryo assessed as growth retardation at 5 ug/ml measured at 96 hrs post fertilization by inverted microscopic analysis; type: organism-based; settings: in vivo
Candida parapsilosis [15] = test: Antibiofilm activity against Candida parapsilosis C27 assessed as disruption of preformed biofilm after 24 hrs by concanavalin A-FITC-staining based fluorescence microscopic analysis; type: functional
Danio rerio [16] = organism: Danio rerio; test: Toxicity against zebrafish embryo assessed as effect on otoliths at 2.5 ug/ml measured at 96 hrs post fertilization by inverted microscopic analysis; type: organism-based; settings: in vivo
Danio rerio [17] = organism: Danio rerio; test: Toxicity against zebrafish embryo assessed as effect on blood circulation at 5 ug/ml measured at 96 hrs post fertilization by inverted microscopic analysis; type: organism-based; settings: in vivo
Danio rerio [18] = organism: Danio rerio; test: Toxicity against zebrafish embryo assessed as effect on notochord at 5 ug/ml measured at 96 hrs post fertilization by inverted microscopic analysis; type: organism-based; settings: in vivo
Pichia kudriavzevii [19] = test: Antifungal activity against Candida krusei ATCC 34135 by broth dilution method; type: functional
Danio rerio [20] = organism: Danio rerio; test: Toxicity against zebrafish embryo assessed as effect on heart beat at 2.5 ug/ml measured at 96 hrs post fertilization by inverted microscopic analysis; type: organism-based; settings: in vivo
Microsporum canis = test: Antifungal activity against Microsporum canis DMT2 by broth dilution method; type: functional
Danio rerio [21] = organism: Danio rerio; test: Toxicity against zebrafish embryo assessed as teratogenic embryos at 2.5 ug/ml measured at 96 hrs post fertilization by inverted microscopic analysis; type: organism-based; settings: in vivo
Danio rerio [22] = organism: Danio rerio; test: Toxicity against zebrafish embryo assessed as teratogenic embryos at 10 ug/ml measured at 96 hrs post fertilization by inverted microscopic analysis; type: organism-based; settings: in vivo
Danio rerio [23] = test: Toxicity against zebrafish embryo assessed as pericardial edema at 2.5 ug/ml measured at 96 hrs post fertilization by inverted microscopic analysis; type: organism-based; settings: in vivo
[24] = Toxicity against zebrafish embryo assessed as dead embryos at 25 ug/ml measured at 96 hrs post fertilization by inverted microscopic analysis; type: organism-based, Danio rerio; settings: read-out: Activity
Danio rerio [25] = organism: Danio rerio; test: Toxicity against zebrafish embryo assessed as skeletal deformities at 5 ug/ml measured at 96 hrs post fertilization by inverted microscopic analysis; type: organism-based; settings: in vivo
Candida parapsilosis [26] = test: Antifungal activity against Candida parapsilosis C27 by broth dilution method; type: functional
Danio rerio [27] = organism: Danio rerio; test: Toxicity against zebrafish embryo assessed as effect on otoliths at 5 ug/ml measured at 96 hrs post fertilization by inverted microscopic analysis; type: organism-based; settings: in vivo
Danio rerio [28] = organism: Danio rerio; test: Toxicity against zebrafish embryo assessed as head malformation at 2.5 ug/ml measured at 96 hrs post fertilization by inverted microscopic analysis; type: organism-based; settings: in vivo
Danio rerio [29] = organism: Danio rerio; test: Toxicity against zebrafish embryo assessed as unhatched embryos at 2.5 ug/ml measured at 96 hrs post fertilization by inverted microscopic analysis; type: organism-based; settings: in vivo
Candida albicans [30] = test: Antifungal activity against Candida albicans ATCC 10231 by broth dilution method; type: functional
Danio rerio [31] = test: Toxicity against zebrafish embryo assessed as yolk edema at 2.5 ug/ml measured at 96 hrs post fertilization by inverted microscopic analysis; type: organism-based; settings: in vivo
[32] = Toxicity against zebrafish embryo assessed as dead embryos at 50 ug/ml measured at 96 hrs post fertilization by inverted microscopic analysis; type: organism-based, Danio rerio; settings: read-out: Activity
Danio rerio [33] = organism: Danio rerio; test: Toxicity against zebrafish embryo assessed as effect on heart beat at 5 ug/ml measured at 96 hrs post fertilization by inverted microscopic analysis; type: organism-based; settings: in vivo
[34] = Toxicity against zebrafish embryo assessed as dead embryos at 2.5 ug/ml measured at 96 hrs post fertilization by inverted microscopic analysis; type: organism-based, Danio rerio; settings: read-out: Activity
Danio rerio [35] = organism: Danio rerio; test: Toxicity against zebrafish embryo assessed as effect on tail tip at 5 ug/ml measured at 96 hrs post fertilization by inverted microscopic analysis; type: organism-based; settings: in vivo
Candida albicans [36] = test: Antifungal activity against Candida albicans CA5 assessed as fungal growth at sub-MIC measured after 24 hrs by time-kill dependence-based spectrophotometric analysis relative to DMSO control; type: functional, organism-based
Candida albicans [37] = test: Antibiofilm activity against Candida albicans ATCC 10231 assessed as disruption of preformed biofilm after 24 hrs by concanavalin A-FITC-staining based fluorescence microscopic analysis; type: functional
Fusarium oxysporum = test: Antifungal activity against Fusarium oxysporum AB18 by broth dilution method; type: functional
Danio rerio [38] = organism: Danio rerio; test: Toxicity against zebrafish embryo assessed as effect on eyes at 2.5 ug/ml measured at 96 hrs post fertilization by inverted microscopic analysis; type: organism-based; settings: in vivo
[39] = Toxicity against zebrafish embryo assessed as dead embryos at 5 ug/ml measured at 96 hrs post fertilization by inverted microscopic analysis; type: organism-based, Danio rerio; settings: read-out: Activity
Candida albicans [40] = test: Antifungal activity against Candida albicans CA5 assessed as fungal growth at sub-MIC measured over 12 hrs by time-kill dependence-based spectrophotometric analysis relative to DMSO control; type: functional
Danio rerio [41] = organism: Danio rerio; test: Toxicity against zebrafish embryo assessed as normal embryos at 50 ug/ml measured at 96 hrs post fertilization by inverted microscopic analysis; type: organism-based; settings: in vivo
Danio rerio [42] = organism: Danio rerio; test: Toxicity against zebrafish embryo assessed as teratogenic embryos at 50 ug/ml measured at 96 hrs post fertilization by inverted microscopic analysis; type: organism-based; settings: in vivo
Danio rerio [43] = organism: Danio rerio; test: Toxicity against zebrafish embryo assessed as effect on blood circulation at 2.5 ug/ml measured at 96 hrs post fertilization by inverted microscopic analysis; type: organism-based; settings: in vivo
Candida albicans [44] = test: Antifungal activity against Candida albicans CA5 by broth dilution method; type: functional
Danio rerio [45] = organism: Danio rerio; test: Toxicity against zebrafish embryo assessed as normal embryos at 10 ug/ml measured at 96 hrs post fertilization by inverted microscopic analysis; type: organism-based; settings: in vivo
Candida albicans [46] = test: Antibiofilm activity against Candida albicans assessed as inhibition of Spider medium-induced hyphae formation at sub-MIC after 24 hrs by propidium iodide and FITC-conjugated concanavaline A staining based fluorescence microscopy; type: functional, organism-based
Pichia kudriavzevii [47] = test: Antibiofilm activity against Pichia kudriavzevii ATCC 34135 assessed as disruption of preformed biofilm after 24 hrs by concanavalin A-FITC-staining based fluorescence microscopic analysis; type: functional
Aspergillus fumigatus = test: Antifungal activity against Aspergillus fumigatus ATCC 13073 by broth dilution method; type: functional
[48] = Induction of membrane damage in PC/PS liposome assessed as calcein release at MIC after 30 mins by fluorescence-based liposome leakage assay; type: functional
Danio rerio [49] = organism: Danio rerio; test: Toxicity against zebrafish embryo assessed as growth retardation at 2.5 ug/ml measured at 96 hrs post fertilization by inverted microscopic analysis; type: organism-based; settings: in vivo
Danio rerio [50] = organism: Danio rerio; test: Toxicity against zebrafish embryo assessed as unhatched embryos at 5 ug/ml measured at 96 hrs post fertilization by inverted microscopic analysis; type: organism-based; settings: in vivo
[51] = system: Trichophyton mentagrophytes; test: Antifungal activity against Trichophyton mentagrophytes DMT4 by broth dilution method; type: functional
Danio rerio [52] = organism: Danio rerio; test: Toxicity against zebrafish embryo assessed as normal embryos at 5 ug/ml measured at 96 hrs post fertilization by inverted microscopic analysis; type: organism-based; settings: in vivo
[53] = Hemolytic effect in sheep RBC assessed as release of hemoglobin at 40 ug/ml after 1 hr; type: ADME, cell-based, Ovis aries; settings: erythrocyte

C[C@@H](c1ncncc1F)[C@](O)(Cn1cncn1)c1ccc(F)cc1F [VORICONAZOLE]
active: Activity (Candida albicans [40]) | Activity (Candida albicans [46])
94.74%: Activity (Danio rerio [6])
36.7%: mortality at 96 h, 2.5 ug/ml [34]
3.1 µg/mL: LC50 at 96 h [2]
63.33%: Activity (Danio rerio [21])
250 µg/mL: MBEC (Candida albicans [37]) | MBEC (Pichia kudriavzevii [47])
100%: Activity (Danio rerio [1]) | Activity (Danio rerio [9]) | Activity (Danio rerio [10]) | mortality at 96 h, 10 ug/ml [11] | Activity (Danio rerio [12]) | Activity (Danio rerio [14]) | Activity (Danio rerio [16]) | Activity (Danio rerio [17]) | Activity (Danio rerio [23]) | mortality at 96 h, 25 ug/ml [24] | Activity (Danio rerio [25]) | Activity (Danio rerio [27]) | Activity (Danio rerio [28]) | mortality at 96 h, 50 ug/ml [32] | Activity (Danio rerio [33]) | Activity (Danio rerio [38]) | Activity (Danio rerio [49])
0.25 µg/mL: MIC [51]
0%: Activity (Danio rerio [4]) | Activity (Danio rerio [5]) | Activity (Danio rerio [7]) | Activity (Danio rerio [8]) | Activity (Danio rerio [13]) | Activity (Danio rerio [18]) | Activity (Danio rerio [20]) | Activity (Danio rerio [22]) | Activity (Danio rerio [29]) | Activity (Danio rerio [31]) | Activity (Danio rerio [35]) | Activity (Danio rerio [41]) | Activity (Danio rerio [42]) | Activity (Danio rerio [43]) | Activity (Danio rerio [45]) | Activity (Danio rerio [50]) | Activity (Danio rerio [52])
20%: Activity (Danio rerio [3])
inactive: MBEC (Candida parapsilosis [15]) | MIC (Candida parapsilosis [26]) | Activity (Candida albicans [36]) | MIC (Fusarium oxysporum) | MIC (Candida albicans [44])
12%: Activity [48]
0.5 µg/mL: MIC (Microsporum canis) | MIC (Candida albicans [30])
80%: mortality at 96 h, 5 ug/ml [39]
0.06 µg/mL: MIC (Pichia kudriavzevii [19]) | MIC (Aspergillus fumigatus)

NYSTATIN
35%: Activity [53]
